According to ChEMBL document CHEMBL6078684, “Discovery of a Novel Non-invasive AR PROTAC Degrader for the Topical Treatment of Androgenetic Alopecia” (J Med Chem, 2024):
Activity calls are given as the source filed them. The rule behind the calls is not given here.

Assays:
[1] = Drug uptake in male Sprague-Dawley rat Dorsal skin assessed as retention rat at 1 mg/ml, TOP measured after 30 mins by LC-MS/MS analysis; type: ADME, tissue-based, Zone of skin; details: in vivo, topical_or_ocular, 0.5 h
[2] = target: T1, Protein cereblon/Androgen receptor (Homo sapiens, UniProt P10275+Q96SW2); assay: PROTAC activity at CRBN/AR in human dermal papilla cell assessed as induction of AR degradation at 500 nM by Western blot analysis; type: cell-based; details: time 2-24 hrs
T1 sequence (P10275 whole entry, looked up): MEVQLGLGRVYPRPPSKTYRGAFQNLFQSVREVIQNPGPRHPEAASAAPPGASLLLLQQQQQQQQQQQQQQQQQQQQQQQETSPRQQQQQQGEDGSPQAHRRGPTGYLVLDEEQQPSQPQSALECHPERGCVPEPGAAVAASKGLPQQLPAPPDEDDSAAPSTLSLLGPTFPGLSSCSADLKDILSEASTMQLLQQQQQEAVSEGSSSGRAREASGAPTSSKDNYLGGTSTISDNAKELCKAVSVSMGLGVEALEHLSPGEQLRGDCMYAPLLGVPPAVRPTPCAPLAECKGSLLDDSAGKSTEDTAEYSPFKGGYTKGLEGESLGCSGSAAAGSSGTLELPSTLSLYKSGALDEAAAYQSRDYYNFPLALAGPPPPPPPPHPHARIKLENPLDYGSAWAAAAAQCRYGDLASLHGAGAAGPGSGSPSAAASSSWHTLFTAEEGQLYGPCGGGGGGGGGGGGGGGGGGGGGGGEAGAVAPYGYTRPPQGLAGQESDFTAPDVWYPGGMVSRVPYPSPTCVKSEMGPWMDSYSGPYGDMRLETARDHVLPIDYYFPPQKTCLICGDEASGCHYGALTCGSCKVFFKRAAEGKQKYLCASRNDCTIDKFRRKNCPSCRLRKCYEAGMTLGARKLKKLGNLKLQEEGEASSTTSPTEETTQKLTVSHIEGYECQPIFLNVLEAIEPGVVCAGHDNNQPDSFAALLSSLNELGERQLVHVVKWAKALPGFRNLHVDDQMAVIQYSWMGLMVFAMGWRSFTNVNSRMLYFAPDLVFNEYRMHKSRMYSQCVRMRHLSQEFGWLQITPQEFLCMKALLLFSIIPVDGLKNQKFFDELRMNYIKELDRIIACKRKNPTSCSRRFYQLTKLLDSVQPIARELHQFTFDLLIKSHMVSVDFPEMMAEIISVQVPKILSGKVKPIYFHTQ
T1 sequence (Q96SW2 whole entry, looked up): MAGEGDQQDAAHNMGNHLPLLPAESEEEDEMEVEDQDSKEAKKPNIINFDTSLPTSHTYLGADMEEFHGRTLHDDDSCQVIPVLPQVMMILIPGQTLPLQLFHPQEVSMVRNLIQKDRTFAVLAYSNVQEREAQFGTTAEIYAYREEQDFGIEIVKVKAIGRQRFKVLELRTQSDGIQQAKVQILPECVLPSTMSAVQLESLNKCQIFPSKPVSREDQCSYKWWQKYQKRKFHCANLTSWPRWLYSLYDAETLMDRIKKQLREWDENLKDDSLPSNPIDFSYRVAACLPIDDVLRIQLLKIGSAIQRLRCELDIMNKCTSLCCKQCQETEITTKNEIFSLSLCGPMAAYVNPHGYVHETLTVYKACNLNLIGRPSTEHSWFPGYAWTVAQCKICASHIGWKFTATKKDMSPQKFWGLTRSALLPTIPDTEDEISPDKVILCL

[3] = target: T1, Protein cereblon/Androgen receptor; assay: PROTAC activity at CRBN/AR in human dermal papilla cells assessed as induction of AR degradation at 500 nM in presence of MG132 by Western blot analysis; type: cell-based; details: Human dermal papilla cell
[4] = target: T1, Protein cereblon/Androgen receptor; assay: PROTAC activity at CRBN/AR in human dermal papilla cells assessed as induction of AR degradation at 500 nM in presence of MLN4924 by Western blot analysis; type: cell-based; details: Human dermal papilla cell
[5] = target: T1, Protein cereblon/Androgen receptor; assay: PROTAC activity at CRBN/AR in human dermal papilla cells assessed as induction of AR degradation at 500 nM in presence of warhead of compound by Western blot analysis; type: cell-based; details: Human dermal papilla cell
[6] = target: T1, Protein cereblon/Androgen receptor; assay: PROTAC activity at CRBN/AR in human dermal papilla cells assessed as inhibition of TGF-beta1 release by measuring TGF-beta1 concentration at 500 nM preincubated with testosterone for 24 hrs followed by compound addition and measured after 48 hrs by ELISA; type: cell-based; details: Human dermal papilla cell
[7] = target: T1, Protein cereblon/Androgen receptor; assay: PROTAC activity at CRBN/AR in human dermal papilla cells assessed as inhibition of TGF-beta1 release by measuring TGF-beta1 concentration at 1 uM preincubated with testosterone for 24 hrs followed by compound addition and measured after 48 hrs by ELISA; type: cell-based; details: Human dermal papilla cell
[8] = Cmax in male ICR mouse skin at 4 mg/ml, TOP measured after 12 hrs by LC-MS/MS analysis; type: ADME, tissue-based, Skin of body; details: topical or ocular
[9] = AUC (0 to t) in male ICR mouse plasma at 4 mg/ml, TOP measured after 12 hrs by LC-MS/MS analysis; type: ADME, cell-free; details: topical or ocular
[10] = Ratio of drug concentration in male ICR mouse skin to plasma at 4 mg/ml, TOP measured after 0.25 hrs by LC-MS/MS analysis; type: ADME, cell-free; details: topical or ocular
[11] = Ratio of drug concentration in male ICR mouse skin to plasma at 4 mg/ml, TOP measured after 2 hrs by LC-MS/MS analysis; type: ADME, cell-free; details: other tissue, topical_or_ocular
[12] = Ratio of drug concentration in male ICR mouse skin to plasma at 4 mg/ml, TOP measured after 8 hrs by LC-MS/MS analysis; type: ADME, cell-free; details: other tissue, topical_or_ocular
[13] = Ratio of drug concentration in male ICR mouse skin to plasma at 4 mg/ml, TOP measured after 12 hrs by LC-MS/MS analysis; type: ADME, cell-free; details: other tissue, topical_or_ocular
[14] = Ratio of drug concentration in male ICR mouse skin to heart at 4 mg/ml, TOP measured after 1 hrs by LC-MS/MS analysis; type: ADME, tissue-based; details: in vivo, topical_or_ocular
[15] = Ratio of drug concentration in male ICR mouse skin to liver at 4 mg/ml, TOP measured after 0.25 hrs by LC-MS/MS analysis; type: ADME, tissue-based; details: in vivo, topical_or_ocular
[16] = Ratio of drug concentration in male ICR mouse skin to liver at 4 mg/ml, TOP measured after 1 hrs by LC-MS/MS analysis; type: ADME, tissue-based; details: in vivo, topical_or_ocular
[17] = Ratio of drug concentration in male ICR mouse skin to liver at 4 mg/ml, TOP measured after 2 hrs by LC-MS/MS analysis; type: ADME, tissue-based; details: in vivo, topical_or_ocular
[18] = Ratio of drug concentration in male ICR mouse skin to liver at 4 mg/ml, TOP measured after 4 hrs by LC-MS/MS analysis; type: ADME, tissue-based; details: in vivo, topical_or_ocular
[19] = Ratio of drug concentration in male ICR mouse skin to liver at 4 mg/ml, TOP measured after 12 hrs by LC-MS/MS analysis; type: ADME, tissue-based; details: in vivo, topical_or_ocular
[20] = Ratio of drug concentration in male ICR mouse skin to spleen at 4 mg/ml, TOP measured after 0.25 hrs by LC-MS/MS analysis; type: ADME, tissue-based; details: in vivo, topical_or_ocular
[21] = Ratio of drug concentration in male ICR mouse skin to spleen at 4 mg/ml, TOP measured after 1 hrs by LC-MS/MS analysis; type: ADME, tissue-based; details: in vivo, topical_or_ocular
[22] = Ratio of drug concentration in male ICR mouse skin to spleen at 4 mg/ml, TOP measured after 4 hrs by LC-MS/MS analysis; type: ADME, tissue-based; details: in vivo, topical_or_ocular
[23] = Ratio of drug concentration in male ICR mouse skin to lungs at 4 mg/ml, TOP measured after 0.5 hrs by LC-MS/MS analysis; type: ADME, tissue-based, Skin/Lung; details: in vivo, topical_or_ocular
[24] = Ratio of drug concentration in male ICR mouse skin to lungs at 4 mg/ml, TOP measured after 1 hrs by LC-MS/MS analysis; type: ADME, tissue-based, Skin/Lung; details: in vivo, topical_or_ocular
[25] = Ratio of drug concentration in male ICR mouse skin to lungs at 4 mg/ml, TOP measured after 8 hrs by LC-MS/MS analysis; type: ADME, tissue-based, Skin/Lung; details: in vivo, topical_or_ocular
[26] = Ratio of drug concentration in male ICR mouse skin to kidney at 4 mg/ml, TOP measured after 0.25 hrs by LC-MS/MS analysis; type: ADME, tissue-based; details: in vivo, topical_or_ocular
[27] = Ratio of drug concentration in male ICR mouse skin to kidney at 4 mg/ml, TOP measured after 2 hrs by LC-MS/MS analysis; type: ADME, tissue-based; details: in vivo, topical_or_ocular
[28] = Ratio of drug concentration in male ICR mouse skin to kidney at 4 mg/ml, TOP measured after 8 hrs by LC-MS/MS analysis; type: ADME, tissue-based; details: in vivo, topical_or_ocular
[29] = Ratio of drug concentration in male ICR mouse skin to kidney at 4 mg/ml, TOP measured after 12 hrs by LC-MS/MS analysis; type: ADME, tissue-based; details: in vivo, topical_or_ocular
Mus musculus [30] = assay: Hair regeneration efficacy in testosterone induced male C57BL/6 mouse androgenetic alopecia model at 0.4 %, TOP administered once daily for 14 days and measured after 21 days with co-administration of 0.2% testosterone for 28 days relative to minoxidil by photographic analysis; type: functional; details: time 14 day
Mus musculus [31] = assay: Hair regeneration efficacy in testosterone induced male C57BL/6 mouse androgenetic alopecia model assessed as earlier pigmentation at 0.1 to 0.4 %, TOP administered once daily for 14 days and measured after 21 days with co-administration of 0.2% testosterone for 28 days by photographic analysis; type: functional, organism-based; details: dose 0.1-0.4 %, time 14.0 day
Mus musculus [32] = assay: Hair regeneration efficacy in testosterone induced male C57BL/6 mouse androgenetic alopecia model assessed as generation of thick hair with intact scales at 0.4 %, TOP administered once daily for 14 days with co-administration of 0.2% testosterone and measured after 28 days by SEM analysis; type: functional, organism-based; details: time 28.0 day
Mus musculus [33] = assay: Hair regeneration efficacy in testosterone induced male C57BL/6 mouse androgenetic alopecia model assessed as increase in hair density at 0.4 %, TOP administered once daily for 14 days with co-administration of 0.2% testosterone and measured after 28 days by trichoscope photographic analysis; type: functional, organism-based; details: time 28.0 day
Mus musculus [34] = assay: Hair regeneration efficacy in testosterone induced male C57BL/6 mouse androgenetic alopecia model assessed as entry of hair follicles to anagen phase by measuring high density of enlarged hair bulbs in subcutaneous tissue at 0.1 %, TOP administered once daily for 14 days with co-administration of 0.2% testosterone for 28 days by H and E staining based analysis; type: functional, organism-based; details: time 14.0 day
Mus musculus [35] = assay: Hair regeneration efficacy in testosterone induced male C57BL/6 mouse androgenetic alopecia model assessed as increase in Ki67 expression in skin at 0.4 % TOP administered once daily for 14 days with co-administration of 0.2% testosterone for 28 days by DAPI staining based immunofluorescence analysis; type: functional, organism-based; details: time 14.0 day

Drug uptake [1]: 2.48% | Activity [2]: Time-dependent-effect | Activity [5]: inactive | Activity [6]: 869 pg/mL | Activity [7]: 736 pg/mL | Cmax [8]: 86700 ng/g | AUC(0-t) at 12 h [9]: 992 ng·h/mL | Kp at 0.25 h [10]: 117 | Ratio [11]: 1098.91 | Ratio [12]: 2610.82 | Ratio [13]: 1736.28 | Ratio [14]: 996.6 | Ratio [15]: 344.99 | Ratio [16]: 485.29 | Ratio [17]: 441.98 | Ratio [18]: 629.99 | Ratio [19]: 173.24 | Ratio [20]: 510.81 | Ratio [21]: 472.95 | Ratio [22]: 635.83 | Ratio [23]: 54.37 | Ratio [24]: 476.62 | Ratio [25]: 800.46 | Ratio [26]: 484.4 | Ratio [27]: 410.02 | Ratio [28]: 191.71 | Ratio [29]: 101.26
SMILES: N#Cc1ccc(O[C@H]2CC[C@H](NC(=O)c3ccc(C4CCN(CC5CCCN(c6ccc(C(=O)NC7CCC(=O)NC7=O)cc6)C5)CC4)cc3)CC2)cc1Cl (stereo not given in full)
Activity [3]: Not active; Compound Activity Dependent On Ubiquitin-Proteosome System | Activity [4]: Not active; Compound Activity Dependent On Ubiquitin-Proteosome System | Activity (Mus musculus [30]): 100% | Activity (Mus musculus [31]): Active | Activity (Mus musculus [32]): Active | Activity (Mus musculus [33]): Active | Activity (Mus musculus [34]): Active; Less Effective Compared To High Dose Compound Group And Minoxidil Group | Activity (Mus musculus [35]): Active
